# Patent US20240124528A1, “ANTAGONIST OF INTERLEUKIN-17B RECEPTOR (IL-17RB) AND USE THEREOF” (Academia Sinica, priority 2020, published 2024)
# Legend:
# [1] = target: T1, interaction between IL-17RB and MLK4 (Homo sapiens, UniProt Q5TCX8); assay: Co-immunoprecipitation of IL-17RB and MLK4 after peptide pretreatment and rIL-17B; format: cell-based; details: 293T cells expressing Flag-MLK4 and HA-IL-17RB; peptides 0, 0.1, 1, 10, 50, 100 ng/ml for 30 mins, then rIL-17B 30 mins
# T1 construct: host or cells: 293T (HEK293T)
# Description: FIGS. 7A to 7J include charts showing that disruption of the interaction between IL-17RB and MLK4 by the loop peptide blocks oncogenic progression. (FIG. 7A) Peptides TAT48-57 (Control) (SEQ ID NO: 21) and TAT-IL-17RB403-416 (Loop) (SEQ ID NO: 30) used for the following experiments. (FIG. 7B) Immunoblotting analysis of IL-17RB binding to MLK4 with Loop peptide treatment. 293T cells expressing Flag-MLK4 and HA-IL-17RB were pretreated with the control and loop peptides with different dose (0, 0.1, 1, 10, 50, 100 ng/ml) for 30 mins, and then added rIL-17B for 30 mins. The cell lysates were reciprocally co-immunoprecipitated with anti-Flag and anti-HA and blotted with the indicated antibodies or directly immunoblotted with the indicated antibodies as the input controls. […] CCL20 and TFF/mRNA expression of these cells were measured by RT-qPCR (n=3) (FIG. 7D), the same cells were for invasion assay (n=4) (FIG. 7E) and SACF assay (n=4) (FIG. 7F). […] (FIG. 7I) The experimental EKP mice (n=7 for each group) were euthanized at Day 56, and the metastatic tumor nodules in the lungs were counted. […]
# Whole-cell lysates were prepared as previously described (6, 7). […] After extensive washing with diluted lysis buffer (0.01% Triton X-100), IL-17RB and its associated proteins were analyzed by immunoblotting analysis. […]
# IL-17RB = assay: Immunoblotting/IP of IL-17B-induced IL-17RB signaling in CFPAC1 cells after peptide pretreatment; format: cell-based, human; details: CFPAC1 cells pretreated with peptides 30 mins, then rIL-17B 30 mins
# Description: FIGS. 7A to 7J include charts showing that disruption of the interaction between IL-17RB and MLK4 by the loop peptide blocks oncogenic progression. (FIG. 7A) Peptides TAT48-57 (Control) (SEQ ID NO: 21) and TAT-IL-17RB403-416 (Loop) (SEQ ID NO: 30) used for the following experiments. (FIG. 7B) Immunoblotting analysis of IL-17RB binding to MLK4 with Loop peptide treatment. 293T cells expressing Flag-MLK4 and HA-IL-17RB were pretreated with the control and loop peptides with different dose (0, 0.1, 1, 10, 50, 100 ng/ml) for 30 mins, and then added rIL-17B for 30 mins. The cell lysates were reciprocally co-immunoprecipitated with anti-Flag and anti-HA and blotted with the indicated antibodies or directly immunoblotted with the indicated antibodies as the input controls. (FIG. 7C to FIG. 7F) CFPAC1cells were pretreated with the peptides for 30 mins and then added rIL-17B for 30 mins. The cell lysates were immunoblotted with the indicated antibodies or immunoprecipitated with anti-IL-17RB or control IgG and blotted with the indicated antibodies (FIG. 7C). CFPAC1 cells were pretreated with TAT48-57 or TAT-IL-17RB403-416 (50 ng/ml) 30 mins and then added rIL-17B for two hrs. CCL20 and TFF/mRNA expression of these cells were measured by RT-qPCR (n=3) (FIG. 7D), the same cells were for invasion assay (n=4) (FIG. 7E) and SACF assay (n=4) (FIG. 7F). (FIG. 7G) The scheme of the treatment of transgenic pancreatic cancer EKP mice (LSL-Kras^+/G12D; p53^+/−; Ela-Cre^ERT; plus cerulein) with the Loop peptides. (FIG. 7H) IHC images of pancreases stained with anti-P-Y447 antibody. Scale bars: 50 μm. The pancreas tissues were from EKP mice after treated with the control or loop peptides at Day 42. The Kras^+/+ mice (Kras^+/+; p53^+/−; Ela-Cre^ERT; plus cerulein) were used as the non-cancerous control. Boxes indicate the enlarged areas. (FIG. 7I) The experimental EKP mice (n=7 for each group) were euthanized at Day 56, and the metastatic tumor nodules in the lungs were counted. (FIG. 7J) Kaplan-Meier survival curve plot of the lifespans of the experimental EKP mice (n=7 for each group). […]
# T1 sequence (Q5TCX8 whole entry): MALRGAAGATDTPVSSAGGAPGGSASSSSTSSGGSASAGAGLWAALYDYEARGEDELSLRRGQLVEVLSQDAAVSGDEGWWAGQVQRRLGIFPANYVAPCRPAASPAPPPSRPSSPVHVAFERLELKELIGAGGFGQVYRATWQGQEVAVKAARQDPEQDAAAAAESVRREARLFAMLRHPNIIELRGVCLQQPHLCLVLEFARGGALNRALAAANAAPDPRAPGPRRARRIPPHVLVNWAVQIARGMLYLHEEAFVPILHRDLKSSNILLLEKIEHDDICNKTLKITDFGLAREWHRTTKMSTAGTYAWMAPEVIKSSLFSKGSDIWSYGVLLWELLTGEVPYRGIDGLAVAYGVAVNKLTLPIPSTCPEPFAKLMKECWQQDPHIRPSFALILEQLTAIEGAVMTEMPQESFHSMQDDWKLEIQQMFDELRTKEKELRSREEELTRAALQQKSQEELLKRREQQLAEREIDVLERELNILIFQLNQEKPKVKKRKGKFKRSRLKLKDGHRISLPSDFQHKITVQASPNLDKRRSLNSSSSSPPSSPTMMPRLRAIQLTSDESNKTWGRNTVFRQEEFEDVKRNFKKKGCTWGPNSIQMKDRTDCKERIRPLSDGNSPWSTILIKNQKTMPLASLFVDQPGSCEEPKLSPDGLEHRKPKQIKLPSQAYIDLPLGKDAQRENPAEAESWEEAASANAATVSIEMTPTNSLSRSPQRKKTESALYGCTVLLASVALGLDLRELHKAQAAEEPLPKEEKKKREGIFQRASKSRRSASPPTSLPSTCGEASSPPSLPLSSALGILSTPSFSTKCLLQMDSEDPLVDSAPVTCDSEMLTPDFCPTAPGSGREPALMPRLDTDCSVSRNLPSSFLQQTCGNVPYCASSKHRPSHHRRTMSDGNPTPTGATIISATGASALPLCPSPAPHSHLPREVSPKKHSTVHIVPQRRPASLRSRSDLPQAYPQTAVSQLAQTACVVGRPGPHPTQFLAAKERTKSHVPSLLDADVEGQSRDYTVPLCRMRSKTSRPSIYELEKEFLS
sequence,measurement,setting,value
"RKKRRQRRRVCDGTCGKSEGSPS (IL-17RB inhibitory peptide, fusion protein) [loop peptide]",interaction between IL-17RB and MLK4 (co-IP),[1],disrupted
same,ERK1/2 phosphorylation induced by IL-17B,IL-17RB,abolished
same,tyrosine phosphorylation of IL-17RB induced by IL-17B,IL-17RB,abolished
same,ubiquitination of IL-17RB induced by IL-17B,IL-17RB,abolished
